Assay results as given in US20240051952A1, “HMOX1 INDUCERS” (Mitobridge Inc., priority 2019, published 2024).

System: Human Heme Oxygenase-1 (HMOX-1)
Experiment: ELISA assay to measure human heme oxygenase-1 (HMOX-1) in HepG2 lysate
Format: cell-based
Details: fold change of human HMOX1 protein levels relative to DMSO control, HepG2
Description: Example 143. ELISA Assay to Measure Human Heme Oxygenase-1 (HMOX-1) in HepG2 lysate
Reagents and Technical Notes:
ELISA capture antibody, standard HO-1, detection antibody and streptavidin HRP were supplied in the DuoSet IC Human total HO-1 ELISA from R&D systems (DYC3776-2). The substrate cocktail was KPL LumiGLO reserve Chemiluminescent Substrate (54-71-00). PBS was Corning Cellgro Cell Culture (21-040-CV). 10×PBS+0.05% tween20 (PBST) was from KPL.
All incubations of the plate were at room temperature (20° C.) in a closed drawer.
The ELISA plate was processed manually. All loadings were with a multichannel pipet. Plates were emptied by shaking into the sink and tapping onto paper towels to remove any remaining reagent. Plate washing was accomplished by loading all wells with PBS+0.05% tween20 (PBST) using a squirt bottle, shaking the PBST out and tapping the plate onto paper towels.
Preparation of the ELISA Plate: • 1. anti-HO-1 capture antibody was 1440 μg/ml after reconstitution in PBS. This antibody was diluted to 8 μg/ml in PBS and 50 μl per well was added to a 384 well greiner “lumitrac 200” plate. Incubated overnight. • 2. The plate was emptied and 100 μl PBS+1% BSA added to all wells. Incubated 90 minutes at room temperature.
Preparation of HepG2 Lysate: • 1. Cells were cultured in a 96-well tissue culture plate washed with PBS and then the plate frozen at −70° C. overnight. Plates were allowed to warm to ice temperature in an ice bucket. 20 μl of PBS, 0.5% Triton X100, 1 mM EDTA with 1×HALT™ protease inhibitors was added to each well and the plates incubated on ice for 1 hour. • 2. The lysates were frozen at −20° C. overnight.
Measurement of HMOX1 (“HO-1”) • 1. In a polypropylene 384 well plate, human HO-1(after reconstitution in PBS+0.5% Triton+1 mM EDTA) was serially diluted from 20 ng/ml 2-fold in PBS+0.5% triton-X100, 1 mM EDTA to make a 12-point standard curve including a zero point. • 2. In a polypropylene 96 well plate, HepG2 lysate was diluted 1 to 20 in Diluent #4 from DUOSET kit in which the assay standard is also diluted. • 3. The PBS+1% BSA was emptied from the ELISA plate and 30 μl of all samples and standards were added (duplicates recommended). The plate was incubated 90 minutes. • 4. Emptied plate and washed 4 times with PBST. • 5. Diluted HO-1 detection antibody to 200 ng/ml in PBS+1% BSA and added 30 μl to all wells. Incubated 90 minutes. • 6. Emptied plate and washed 4 times with PBST. • 7. Added 30 μl streptavidin HRP at 1/200 in PBS+1% BSA (stock streptavidin concentration not specified) to all wells. Incubated 30 minutes. • 8. Emptied plate and washed 4 times with PBST. • 9. Diluted Lumiglo reserve reagent two parts buffer to one part lumiglo substrate. Added 30 μl to all wells. Incubated 5 minutes. • 10. Measured chemiluminescence on spectramax M5 using 150 ms integration.
Table 1 below lists EC50 and fold changes of human HMOX1 protein levels relative to DMSO control upon treatment with representative compounds.

Maximum Fold induction | Compound
2 | CC(=O)N1CCc2nc(Nc3nc4cc(C(=O)NCCOCCO)ccc4n3C)sc2C1 [Example 10, 2-((5-acetyl-4,5,6,7-tetrahydrothiazolo[5,4-c]pyridin-2-yl)amino)-N-(2-(2-hydroxyethoxy)ethyl)-1-methyl-1H-benzo[d]imidazole-5-carboxamide]
8-12 | Cn1c(Nc2nc3cc(F)ccc3[nH]2)nc2cc(C(=O)O)ccc21 [Example 73, 2-((5-fluoro-1H-benzo[d]imidazol-2-yl)amino)-1-methyl-1H-benzo[d]imidazole-5-carboxylic acid]
17 | Cn1c(Nc2nc3ccccc3o2)nc2cc(C(=O)NCCOCC(C)(C)O)ccc21 [Example 27, 2-(benzo[d]oxazol-2-ylamino)-N-(2-(2-hydroxy-2-methylpropoxy)ethyl)-1-methyl-1H-benzo[d]imidazole-5-carboxamide]
12-18 | Cn1cc(NC(=O)c2ccc3c(c2)nc(Nc2nc4ccc(OC(F)(F)F)cc4o2)n3C)cn1 [Example 50, 1-methyl-N-(1-methyl-1H-pyrazol-4-yl)-2-((6-(trifluoromethoxy)benzo[d]oxazol-2-yl)amino)-1H-benzo[d]imidazole-5-carboxamide]
5.5 | COCCNC(=O)c1ccc2c(c1)nc(Nc1nc3ccccc3[nH]1)n2C [Example 12, 2-((1H-benzo[d]imidazol-2-yl)amino)-N-(2-methoxyethyl)-1-methyl-1H-benzo[d]imidazole-5-carboxamide]
10-28 | COCCNC(=O)c1ccc2c(c1)nc(Nc1nc3ccc(OC(F)(F)F)cc3o1)n2C [Example 45, N-(2-methoxyethyl)-1-methyl-2-((6-(trifluoromethoxy)benzo[d]oxazol-2-yl)amino)-1H-benzo[d]imidazole-5-carboxamide]
18-20 | COCCNC(=O)c1ccc2c(c1)nc(Nc1nc3cc(OC(F)(F)F)ccc3[nH]1)n2CCOC [Example 76, N,1-bis(2-methoxyethyl)-2-((5-(trifluoromethoxy)-1H-benzo[d]imidazol-2-yl)amino)-1H-benzo[d]imidazole-5-carboxamide]
15 | COCCNC(=O)c1ccc2c(c1)nc(Nc1nc3ncccc3o1)n2C [Example 112, N-(2-methoxyethyl)-1-methyl-2-(oxazolo[4,5-b]pyridin-2-ylamino)-1H-benzo[d]imidazole-5-carboxamide]
15-25 | COCCn1c(Nc2nc3cc(OC(F)(F)F)ccc3[nH]2)nc2cc(C(=O)O)ccc21 [Example 75, 1-(2-methoxyethyl)-2-((5-(trifluoromethoxy)-1H-benzo[d]imidazol-2-yl)amino)-1H-benzo[d]imidazole-5-carboxylic acid]
19 | COCCNC(=O)c1ccc2c(c1)nc(Nc1nc3ccc(OC(F)(F)F)cc3s1)n2C1CCN(C)C1 (stereo not drawn) [Example 4e, N-(2-methoxyethyl)-1-(1-methylpyrrolidin-3-yl)-2-((6-(trifluoromethoxy)benzo[d]thiazol-2-yl)amino)-1H-benzo[d]imidazole-5-carboxamide]
22 | CN(C)CCONC(=O)c1ccc2c(c1)nc(Nc1nc3ccccc3o1)n2C [Example 123, 2-(benzo[d]oxazol-2-ylamino)-N-(2-(dimethylamino)ethoxy)-1-methyl-1H-benzo[d]imidazole-5-carboxamide]
60 | Cn1c(Nc2nc3cccnc3o2)nc2cc(C(=O)NCCO)ccc21 [Example 110, N-(2-hydroxyethyl)-1-methyl-2-(oxazolo[5,4-b]pyridin-2-ylamino)-1H-benzo[d]imidazole-5-carboxamide]
33-51 | Cn1c(Nc2nc3ccc(Cl)cc3o2)nc2cc(C(=O)NCCO)ccc21 [Example 97, 2-((6-chlorobenzo[d]oxazol-2-yl)amino)-N-(2-hydroxyethyl)-1-methyl-1H-benzo[d]imidazole-5-carboxamide]
22-23 | COCCNC(=O)c1ccc2c(c1)nc(Nc1nc3ccc(OC(F)(F)F)cc3o1)n2C1CCOCC1 [Example 80, N-(2-methoxyethyl)-1-(tetrahydro-2H-pyran-4-yl)-2-((6-(trifluoromethoxy)benzo[d]oxazol-2-yl)amino)-1H-benzo[d]imidazole-5-carboxamide]
27-36 | COCCONC(=O)c1ccc2c(c1)nc(Nc1nc3ccc(OC(F)(F)F)cc3o1)n2C [Example 127, N-(2-methoxyethoxy)-1-methyl-2-((6-(trifluoromethoxy)benzo[d]oxazol-2-yl)amino)-1H-benzo[d]imidazole-5-carboxamide]
1 | CN1CC(c2ccc3nc(Nc4nc5cc(C(=O)NCCOCCO)ccc5n4C)oc3c2)OC1=O (stereo not drawn) [Example 135, N-(2-(2-hydroxyethoxy)ethyl)-1-methyl-2-((6-(3-methyl-2-oxooxazolidin-5-yl)benzo[d]oxazol-2-yl)amino)-1H-benzo[d]imidazole-5-carboxamide]
24-70 | Cn1c(Nc2nc3ccc(N4CCCC4)cc3o2)nc2cc(C(=O)NCCOCCO)ccc21 [Example 137, N-(2-(2-hydroxyethoxy)ethyl)-1-methyl-2-((6-(pyrrolidin-1-yl)benzo[d]oxazol-2-yl)amino)-1H-benzo[d]imidazole-5-carboxamide]
20 | Cn1c(Nc2nc3ccc(C(F)(F)F)nc3o2)nc2cc(C(=O)NCCO)ccc21 [Example 113, N-(2-hydroxyethyl)-1-methyl-2-((5-(trifluoromethyl)oxazolo[5,4-b]pyridin-2-yl)amino)-1H-benzo[d]imidazole-5-carboxamide]
21-23 | COCCNC(=O)c1ccc2c(c1)nc(Nc1nc3ccc(OC(F)(F)F)cc3o1)n2CCOC [Example 78, N,1-bis(2-methoxyethyl)-2-((6-(trifluoromethoxy)benzo[d]oxazol-2-yl)amino)-1H-benzo[d]imidazole-5-carboxamide]
25-61 | CC(O)CNC(=O)c1ccc2c(c1)nc(Nc1nc3ccccc3o1)n2C (stereo not drawn) [Example 23, 2-(benzo[d]oxazol-2-ylamino)-N-(2-hydroxypropyl)-1-methyl-1H-benzo[d]imidazole-5-carboxamide]
31-36 | Cn1c(Nc2nc3ccc(C(F)(F)F)cc3o2)nc2cc(C(=O)NCCOCCO)ccc21 [Example 34, N-(2-(2-hydroxyethoxy)ethyl)-1-methyl-2-((6-(trifluoromethyl)benzo[d]oxazol-2-yl)amino)-1H-benzo[d]imidazole-5-carboxamide]
31-52 | COCCONC(=O)c1ccc2c(c1)nc(Nc1nc3ccc(C(F)(F)F)cc3o1)n2C [Example 124, N-(2-methoxyethoxy)-1-methyl-2-((6-(trifluoromethyl)benzo[d]oxazol-2-yl)amino)-1H-benzo[d]imidazole-5-carboxamide]
37-39 | Cn1c(Nc2nc3ccc(OCCO)cc3o2)nc2cc(C(=O)NCCO)ccc21 [Example 103, 2-((6-(2-hydroxyethoxy)benzo[d]oxazol-2-yl)amino)-N-(2-hydroxyethyl)-1-methyl-1H-benzo[d]imidazole-5-carboxamide]
11-13 | Cn1c(Nc2nc3cc(C(=O)O)ccc3n2C)nc2cc(OC(F)(F)F)ccc21 [Example 15, 1-methyl-2-((1-methyl-5-(trifluoromethoxy)-1H-benzo[d]imidazol-2-yl)amino)-1H-benzo[d]imidazole-5-carboxylic acid]
27-28 | COCCn1c(Nc2nc3ccc(OC(F)(F)F)cc3o2)nc2cc(C(=O)O)ccc21 [Example 77, 1-(2-methoxyethyl)-2-((6-(trifluoromethoxy)benzo[d]oxazol-2-yl)amino)-1H-benzo[d]imidazole-5-carboxylic acid]

Compound | Maximum Fold induction
COCCOc1ccc2nc(Nc3nc4cc(C(=O)O)ccc4n3C)oc2c1 [Example 55, 2-((6-(2-methoxyethoxy)benzo[d]oxazol-2-yl)amino)-1-methyl-1H-benzo[d]imidazole-5-carboxylic acid] | 15

Same assay, conditions: human HMOX1 protein in HepG2 lysate, ELISA; * = average of 2 or more EC50 determinations; NA = Not Active

Compound | EC50 [µM]
COCCOc1ccc2nc(Nc3nc4cc(C(=O)O)ccc4n3C)oc2c1 [Example 55, 2-((6-(2-methoxyethoxy)benzo[d]oxazol-2-yl)amino)-1-methyl-1H-benzo[d]imidazole-5-carboxylic acid] | 4.5
